{"source": "paper PMC11137104", "about": "“Small molecule induced STING degradation facilitated by the HECT ligase HERC4” (Nature Communications, 2024)", "assay_in_all_cases": "NanoBiT complementation of STING and HERC4 in HEK293T; also co-immunoprecipitation", "assay_type_in_all_cases": "cell-based", "key": {"[1]": {"biological_target": "T1, STING^141-341-LgBiT : SmBiT-HERC4 (Homo sapiens, UniProt Q5GLZ8+Q86WV6)", "T1 construct": "gene STING1; STING cytosolic domain with connector helix (141-341), C-terminal LgBiT; full-length HERC4, N-terminal SmBiT; transient in HEK293T", "T1 sequence (Q86WV6 141-341)": "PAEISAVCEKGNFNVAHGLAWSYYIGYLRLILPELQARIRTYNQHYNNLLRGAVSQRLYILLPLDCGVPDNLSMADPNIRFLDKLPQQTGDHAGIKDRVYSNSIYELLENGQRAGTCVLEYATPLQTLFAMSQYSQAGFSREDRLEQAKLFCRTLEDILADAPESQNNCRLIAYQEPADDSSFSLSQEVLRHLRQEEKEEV", "T1 sequence (Q5GLZ8 whole entry, the tested form may be a part)": "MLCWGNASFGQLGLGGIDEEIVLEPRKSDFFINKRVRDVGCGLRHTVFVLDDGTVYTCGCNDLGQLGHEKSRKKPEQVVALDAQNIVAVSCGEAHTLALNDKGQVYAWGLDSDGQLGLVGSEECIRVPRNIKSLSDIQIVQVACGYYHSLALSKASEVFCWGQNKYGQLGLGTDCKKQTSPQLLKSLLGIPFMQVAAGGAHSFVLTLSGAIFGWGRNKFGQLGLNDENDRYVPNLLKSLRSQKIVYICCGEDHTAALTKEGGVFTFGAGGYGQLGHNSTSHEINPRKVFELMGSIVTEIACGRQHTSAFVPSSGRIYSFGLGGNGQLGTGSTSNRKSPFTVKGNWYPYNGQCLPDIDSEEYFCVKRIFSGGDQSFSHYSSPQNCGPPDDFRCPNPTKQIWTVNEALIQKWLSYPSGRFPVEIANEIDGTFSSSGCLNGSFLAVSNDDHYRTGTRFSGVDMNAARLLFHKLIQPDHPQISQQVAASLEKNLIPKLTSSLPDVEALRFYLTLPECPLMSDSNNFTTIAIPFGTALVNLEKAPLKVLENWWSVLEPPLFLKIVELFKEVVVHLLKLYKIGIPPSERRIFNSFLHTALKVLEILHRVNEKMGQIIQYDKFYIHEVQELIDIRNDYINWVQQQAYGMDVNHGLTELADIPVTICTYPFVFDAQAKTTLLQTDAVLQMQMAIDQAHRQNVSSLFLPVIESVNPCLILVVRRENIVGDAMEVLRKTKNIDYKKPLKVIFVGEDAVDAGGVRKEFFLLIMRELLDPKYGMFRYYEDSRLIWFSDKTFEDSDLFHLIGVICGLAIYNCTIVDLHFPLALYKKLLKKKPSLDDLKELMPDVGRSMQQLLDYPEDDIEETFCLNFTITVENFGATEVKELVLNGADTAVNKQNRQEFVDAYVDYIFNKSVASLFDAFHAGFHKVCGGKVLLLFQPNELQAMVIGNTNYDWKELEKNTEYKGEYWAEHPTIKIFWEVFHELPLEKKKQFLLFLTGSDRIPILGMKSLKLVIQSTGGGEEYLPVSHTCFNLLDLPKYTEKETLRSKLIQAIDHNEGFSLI", "details": "compound-induced STING-HERC4 association; dose-response, 16 h; binding site and direct binary binding not determined"}, "[2]": {"biological_target": "T2, STING^141-341-LgBiT : SmBiT-HERC4 (Homo sapiens, UniProt Q5GLZ8+Q86WV6, Q86WV6:K150R)", "T2 construct": "gene STING1; STING cytosolic domain with connector helix (141-341), C-terminal LgBiT; full-length HERC4, N-terminal SmBiT; transient in HEK293T", "T2 sequence (Q86WV6 141-341 K150R)": "as the sequence (Q86WV6 141-341) above, with K10R counted along it", "T2 sequence (Q5GLZ8 whole entry, the tested form may be a part)": "as the sequence (Q5GLZ8 whole entry, the tested form may be a part) above", "details": "compound-induced STING-HERC4 association; dose-response, 16 h; binding site and direct binary binding not determined"}, "[3]": {"biological_target": "T3, STING^155-341-LgBiT : SmBiT-HERC4 (Homo sapiens, UniProt Q5GLZ8+Q86WV6)", "T3 construct": "gene STING1; full-length HERC4, N-terminal SmBiT; transient in HEK293T", "T3 sequence (Q86WV6 155-341)": "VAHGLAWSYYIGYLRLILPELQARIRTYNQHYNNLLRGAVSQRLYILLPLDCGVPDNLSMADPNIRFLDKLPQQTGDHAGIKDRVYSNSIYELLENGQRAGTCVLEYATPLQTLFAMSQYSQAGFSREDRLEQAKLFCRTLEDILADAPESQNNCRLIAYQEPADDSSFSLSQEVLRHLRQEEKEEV", "T3 sequence (Q5GLZ8 whole entry)": "as the sequence (Q5GLZ8 whole entry, the tested form may be a part) above", "details": "compound-induced STING-HERC4 association; 16 h; binding site and direct binary binding not determined"}}, "data": [{"smiles": "O=S(=O)(Nc1ccc(-c2cccnc2)c2cccnc12)c1ccc(C(F)(F)F)cc1", "note": "[AK59, AK59-51TB]", "values": [{"measurement": "NanoBiT complementation of STING and HERC4 in HEK293T; also co-immunoprecipitati", "setting": "[1]", "value": "only AK59, but not the inactive analog QK50, is capable of inducing an interaction"}, {"measurement": "NanoBiT complementation of STING and HERC4 in HEK293T; also co-immunoprecipitati", "setting": "[2]", "value": "all constructs showed a luminescence signal indicating a direct interaction with HERC4 upon AK59"}, {"measurement": "NanoBiT complementation of STING and HERC4 in HEK293T; also co-immunoprecipitati", "setting": "[3]", "value": "all constructs showed a luminescence signal indicating a direct interaction with HERC4 upon AK59"}]}]}
